Reference: ChEMBL document CHEMBL2202954, “The effect of PLC-γ2 inhibitors on the growth of human tumour cells” (2012)

How the values were obtained:
Type in all cases: functional
[1] = test system: T47D; test: Cytotoxicity against human T47D cells assessed as cellular growth at 10 uM by SRB assay
[2] = test system: MDA-MB-231; test: Cytotoxicity against human MDA-MB-231 cells assessed as cellular growth at 10 uM by SRB assay
[3] = test system: MCF7; test: Cytotoxicity against human MCF7 cells assessed as cellular growth at 10 uM by SRB assay
[4] = test system: UO-31; test: Cytotoxicity against human UO31 cells assessed as cellular growth at 10 uM by SRB assay
[5] = test system: ACHN; test: Cytotoxicity against human ACHN cells assessed as cellular growth at 10 uM by SRB assay
[6] = test system: SK-OV-3; test: Cytotoxicity against human SKOV3 cells assessed as cellular growth at 10 uM by SRB assay
[7] = test system: OVCAR-8; test: Cytotoxicity against human OVCAR8 cells assessed as cellular growth at 10 uM by SRB assay
[8] = test system: OVCAR-3; test: Cytotoxicity against human OVCAR3 cells assessed as cellular growth at 10 uM by SRB assay
[9] = test system: UACC-257; test: Cytotoxicity against human UACC257 cells assessed as cellular growth at 10 uM by SRB assay
[10] = test system: SK-MEL-5; test: Cytotoxicity against human SK-MEL-5 cells assessed as cellular growth at 10 uM by SRB assay
[11] = test system: SK-MEL-28; test: Cytotoxicity against human SK-MEL-28 cells assessed as cellular growth at 10 uM by SRB assay
[12] = test system: SK-MEL-2; test: Cytotoxicity against human SK-MEL-2 cells assessed as cellular growth at 10 uM by SRB assay
[13] = test system: LOX IMVI; test: Cytotoxicity against human LOXIMVI cells assessed as cellular growth at 10 uM by SRB assay
[14] = test system: U-251; test: Cytotoxicity against human U251 cells assessed as cellular growth at 10 uM by SRB assay
[15] = test system: SNB-75; test: Cytotoxicity against human SNB75 cells assessed as cellular growth at 10 uM by SRB assay
[16] = test system: SF-539; test: Cytotoxicity against human SF539 cells assessed as cellular growth at 10 uM by SRB assay
[17] = test system: HCT-116; test: Cytotoxicity against human HCT116 cells assessed as cellular growth at 10 uM by SRB assay
[18] = test system: NCI-H226; test: Cytotoxicity against human NCI-H226 cells assessed as cellular growth at 10 uM by SRB assay
[19] = test system: EKVX; test: Cytotoxicity against human EKVX cells assessed as cellular growth at 10 uM by SRB assay
[20] = test system: RPMI-8226; test: Cytotoxicity against human RPMI8226 cells assessed as cellular growth at 10 uM by SRB assay

Cc1c(OCC(=O)c2ccccc2)ccc2c1oc(=O)c1ccccc12
Activity [1]: 94.27% | Activity [2]: 104.28% | Activity [3]: 102.82% | Activity [4]: 107.51% | Activity [5]: 114.47% | Activity [6]: 101.55% | Activity [7]: 99.11% | Activity [8]: 102.65% | Activity [9]: 111.79% | Activity [10]: 97.8% | Activity [11]: 113.56% | Activity [12]: 125.14% | Activity [13]: 98.34% | Activity [14]: 98.92% | Activity [15]: 122.93% | Activity [16]: 104.56% | Activity [17]: 107.52% | Activity [18]: 99.25% | Activity [19]: 99.55% | Activity [20]: 107.85%
